Laboratory results published in publication PMC3094704, “S-Petasin, the Main Sesquiterpene of Petasites formosanus, Inhibits Phosphodiesterase Activity and Suppresses Ovalbumin-Induced Airway Hyperresponsiveness” (Evidence-based Complementary and Alternative Medicine : eCAM, 2011).

Tested on: female BALB/c mice
Assay: Xylazine/ketamine-induced anesthesia
Format: in vivo, mouse
Details: 10–100 μmol/kg s.c., 1 h before anesthesia
Method: According to the method described by Robichaud et al. and modified by us, S-petasin (10–100 μmol/kg, s.c.) or rolipram (0.01–1 μmol/kg, s.c.), a reference drug, was injected into 8–12 week-old female BALB/c mice 1 h or 15 min, respectively, prior to an i.p. injection of xylazine (10 mg/kg)/ketamine (70 mg/kg). The vehicle (control) for S-petasin or for rolipram was a mixture of alcohol : DMSO : 30% HPβCD : saline (0.5 : 0.5 : 1 : 8 , v/v), or alcohol : DMSO : PEG 400 : saline (0.5 : 0.5 : 1 : 8, v/v), respectively. After loss of the righting reflex (i.e., when a mouse remained on its back and no longer spontaneously righted itself to a prone position), the duration of anesthesia was measured until its return as an endpoint.

C=C(C)[C@@H]1C[C@@]2(C)C(=CC1=O)CC[C@@H](OC(=O)/C=C\SC)[C@@H]2C [S-Petasin]
Duration of xylazine/ketamine-induced anesthesia: did not affect
